The text below walks through data of ChEMBL document CHEMBL5303766, “Data for DCP probe FHT-2344” (2022).

The target in test [1] is Alpha-2A adrenergic receptor (Homo sapiens) (UniProt P08913). The note with it: Compound concentration 10.0 uM.
Test [2] concerns the target T1, Serine/threonine-protein kinase tousled-like 1 (Homo sapiens) (UniProt Q9UKI8).
T1 sequence (whole entry): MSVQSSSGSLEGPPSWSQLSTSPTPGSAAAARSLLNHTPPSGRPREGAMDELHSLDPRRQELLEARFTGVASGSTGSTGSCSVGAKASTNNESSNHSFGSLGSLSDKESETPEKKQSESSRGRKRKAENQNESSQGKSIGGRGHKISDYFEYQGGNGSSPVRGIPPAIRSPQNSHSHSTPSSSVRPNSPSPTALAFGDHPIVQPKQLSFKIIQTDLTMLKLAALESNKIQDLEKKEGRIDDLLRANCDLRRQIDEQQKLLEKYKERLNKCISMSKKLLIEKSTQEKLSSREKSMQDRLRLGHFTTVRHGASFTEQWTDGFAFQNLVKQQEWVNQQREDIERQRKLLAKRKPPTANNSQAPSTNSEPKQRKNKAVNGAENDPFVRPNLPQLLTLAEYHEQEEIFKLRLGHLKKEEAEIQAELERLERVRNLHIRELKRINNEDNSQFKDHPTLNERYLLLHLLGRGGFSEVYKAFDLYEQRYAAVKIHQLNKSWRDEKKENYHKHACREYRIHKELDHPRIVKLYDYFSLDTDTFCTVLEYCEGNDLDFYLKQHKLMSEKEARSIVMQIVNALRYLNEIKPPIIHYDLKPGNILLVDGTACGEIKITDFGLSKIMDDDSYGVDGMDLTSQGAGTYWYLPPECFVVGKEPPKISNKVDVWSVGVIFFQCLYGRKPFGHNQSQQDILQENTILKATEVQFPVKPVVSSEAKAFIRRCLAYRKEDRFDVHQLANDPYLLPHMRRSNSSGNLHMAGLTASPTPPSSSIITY
Description: TLK1 SGC Tm panel (DSF). The note with it: for ΔTm: Compound concentration 10.0 uM.

Test [3] has as its target T2, MAP/microtubule affinity-regulating kinase 4 (Homo sapiens) (UniProt Q96L34).
T2 sequence (whole entry): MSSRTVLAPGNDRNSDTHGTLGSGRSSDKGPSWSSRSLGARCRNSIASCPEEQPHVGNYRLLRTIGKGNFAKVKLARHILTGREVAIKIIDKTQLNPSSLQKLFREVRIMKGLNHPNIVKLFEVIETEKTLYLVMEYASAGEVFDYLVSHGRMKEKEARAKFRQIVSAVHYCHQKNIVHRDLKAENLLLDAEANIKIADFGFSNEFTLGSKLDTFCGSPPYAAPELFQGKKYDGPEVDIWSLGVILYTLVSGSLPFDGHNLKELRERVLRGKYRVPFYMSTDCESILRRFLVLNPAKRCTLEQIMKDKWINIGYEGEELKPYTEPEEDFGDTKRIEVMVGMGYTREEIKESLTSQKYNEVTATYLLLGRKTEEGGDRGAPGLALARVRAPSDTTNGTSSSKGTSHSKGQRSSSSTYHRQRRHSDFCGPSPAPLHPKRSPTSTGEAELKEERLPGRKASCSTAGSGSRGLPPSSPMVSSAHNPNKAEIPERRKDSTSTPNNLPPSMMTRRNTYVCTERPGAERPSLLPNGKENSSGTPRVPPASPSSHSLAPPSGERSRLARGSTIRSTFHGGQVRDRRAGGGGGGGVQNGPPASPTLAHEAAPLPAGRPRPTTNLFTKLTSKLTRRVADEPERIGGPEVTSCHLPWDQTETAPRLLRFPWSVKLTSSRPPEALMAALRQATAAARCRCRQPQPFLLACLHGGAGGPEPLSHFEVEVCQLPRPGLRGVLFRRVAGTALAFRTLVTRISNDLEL
Description: MARK4 SGC Tm panel (DSF). Conditions: for ΔTm: Compound concentration 10.0 uM.

Test [4] deals with SRSF protein kinase 3 (Homo sapiens) (UniProt Q9UPE1). Description: MSSK1 SGC Tm panel (DSF). The note with it: for ΔTm: Compound concentration 10.0 uM.
Test [5] concerns the target T3, Dual specificity tyrosine-phosphorylation-regulated kinase 2 (Homo sapiens) (UniProt Q92630).
T3 sequence (whole entry): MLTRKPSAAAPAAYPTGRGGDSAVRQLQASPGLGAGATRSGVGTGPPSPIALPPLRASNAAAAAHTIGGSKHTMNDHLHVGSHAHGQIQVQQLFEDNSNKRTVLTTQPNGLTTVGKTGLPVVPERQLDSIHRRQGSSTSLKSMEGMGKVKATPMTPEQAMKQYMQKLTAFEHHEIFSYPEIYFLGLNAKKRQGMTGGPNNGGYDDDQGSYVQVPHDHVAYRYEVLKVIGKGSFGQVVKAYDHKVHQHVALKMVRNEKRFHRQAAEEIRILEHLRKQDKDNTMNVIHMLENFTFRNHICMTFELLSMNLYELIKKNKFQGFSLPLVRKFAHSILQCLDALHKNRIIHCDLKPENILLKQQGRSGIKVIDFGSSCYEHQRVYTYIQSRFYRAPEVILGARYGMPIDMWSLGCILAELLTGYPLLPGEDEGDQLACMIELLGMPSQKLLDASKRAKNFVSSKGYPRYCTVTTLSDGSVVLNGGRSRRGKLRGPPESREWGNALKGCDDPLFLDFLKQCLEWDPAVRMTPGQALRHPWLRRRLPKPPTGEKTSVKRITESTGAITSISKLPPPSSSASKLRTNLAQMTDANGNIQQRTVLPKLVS
Description: DYRK2 SGC Tm panel (DSF). Conditions: for ΔTm: Compound concentration 10.0 uM.

Sequence of SRSF protein kinase 3 (Homo sapiens) (Q9UPE1 whole entry): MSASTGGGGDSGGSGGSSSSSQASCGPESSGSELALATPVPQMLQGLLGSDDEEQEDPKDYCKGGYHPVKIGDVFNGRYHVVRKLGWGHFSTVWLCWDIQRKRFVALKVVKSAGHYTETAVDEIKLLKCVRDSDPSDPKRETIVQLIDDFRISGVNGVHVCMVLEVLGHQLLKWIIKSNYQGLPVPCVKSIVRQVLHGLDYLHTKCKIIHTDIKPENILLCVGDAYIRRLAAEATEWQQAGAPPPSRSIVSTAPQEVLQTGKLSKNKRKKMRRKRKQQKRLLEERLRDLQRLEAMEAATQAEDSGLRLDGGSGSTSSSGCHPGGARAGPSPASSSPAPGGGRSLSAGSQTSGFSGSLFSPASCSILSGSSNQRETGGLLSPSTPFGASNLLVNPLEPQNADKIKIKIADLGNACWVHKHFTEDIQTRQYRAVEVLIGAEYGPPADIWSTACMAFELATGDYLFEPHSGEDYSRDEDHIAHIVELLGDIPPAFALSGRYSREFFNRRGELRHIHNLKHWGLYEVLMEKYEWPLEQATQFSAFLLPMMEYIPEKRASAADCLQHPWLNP
Sequence of Alpha-2A adrenergic receptor (Homo sapiens) (P08913 whole entry): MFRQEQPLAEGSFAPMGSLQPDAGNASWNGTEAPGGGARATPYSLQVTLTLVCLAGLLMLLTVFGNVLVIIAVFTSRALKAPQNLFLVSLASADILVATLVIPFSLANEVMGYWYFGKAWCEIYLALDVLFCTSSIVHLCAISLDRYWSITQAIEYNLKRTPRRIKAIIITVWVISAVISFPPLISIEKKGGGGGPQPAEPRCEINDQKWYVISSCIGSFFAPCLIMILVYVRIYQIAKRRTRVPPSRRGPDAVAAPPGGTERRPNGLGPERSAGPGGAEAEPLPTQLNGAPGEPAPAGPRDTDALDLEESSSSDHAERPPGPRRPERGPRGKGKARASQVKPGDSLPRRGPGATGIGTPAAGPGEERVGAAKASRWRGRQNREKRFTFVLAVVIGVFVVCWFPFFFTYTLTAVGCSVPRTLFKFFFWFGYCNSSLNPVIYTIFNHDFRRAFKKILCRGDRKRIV

Regarding `COC[C@H](NC(=O)c1ccn(S(C)(=O)=O)c1)C(=O)Nc1nc(-c2cccc(-c3ccn(C)n3)c2)cs1`, the inhibition in test [1] was 5.84%. For the same compound, the delta Tm Staurosporine positive control in test [2] is 9.52; in test [3], 15.8; in test [4], 3.67; in test [5] it was 6.46. In addition, the ΔTm in test [2] was 1.38; in test [3], 0.492; in test [4] it was 0.376; in test [5], 1.45.
`C[C@H](NC(=O)c1cn(C2(C#N)CC2)cn1)C(=O)Nc1nc(-c2cccc(-c3ccn(C)n3)c2)cs1`: the inhibition in test [1] is 10.5%. For the same compound, the delta Tm Staurosporine positive control in test [2] was found to be 9.52; in test [3] it was 15.8; in test [4], 3.67; in test [5] it was 6.46. The ΔTm was 1.6 in test [2], 0.462 in test [3], 0.0986 in test [4] and 1.82 in test [5].
